Experimental data published in US8936916B2, “Polypeptides for microbial detection” (3M Innovative Properties Company, priority 2008, dated 2015).
Ends that are not written are not given here. * marks the point of attachment. Myristoyl = CCCCCCCCCCCCCC(=O)*

Experiment: Permeabilization of DPPC liposomes containing glucose oxidase by phosphorylated dermatoxin (absorbance at 538 nm)
Type: biochemical
Protocol: DPPC liposomes containing 5 mg/mL glucose oxidase were prepared as described in Example 2. Glucose oxidase activity was measured in a coupled enzyme reaction with horseradish peroxidase as described in Example 2. The various solutions were quickly added to each of the wells of a microplate using a multichannel pipette and the reactions were started (at T=0 hours) with the addition to the wells of a solution containing glucose and 4-AAP.
The ability of the phosphorylated dermatoxin to open liposomes in the presence of phosphatase was tested by preparing a developing solution as described in Example 2. One hundred-fifty microliters of the developing solution was placed in each well of a 96-well microplate. To each column in the plate was added 20 μL of TES buffer containing one of the following concentrations of unpurified dermatoxin: 3.3 mg/mL, 3.3×10^−1 mg/mL, 3.3×10^−2 mg/mL, 3.3×10^−3 mg/mL, 3.3×10^−4 mg/mL, 3.3×10^−5 mg/mL, 3.3×10^−6 mg/mL, or 3.3×10^−7 mg/mL. Negative control wells contained TES buffer with no dermatoxin. Positive control wells buffer contained TES buffer with Triton X-100. Ten-microliter aliquots of the following concentrations of DPPC liposomes (containing 5 mg/mL glucose oxidase) were added to wells in duplicate rows: 0.1 mg lipid/mL, 0.02 mg lipid/mL, 0.004 mg lipid/mL, or plain buffer. To one of the duplicate rows was added 20 μL of 2.5 mg/mL alkaline phosphatase in TES. The other duplicate row received 20 μL of TES buffer. Thus the final dermatoxin concentration in the well varied from […], and the final lipid concentration in the well ranged from 0.005 mg lipid/mL to 2.0×10^−4 mg lipid/mL.
The absorbance was recorded at 538 nm on a SpectraMax M5 plate reader (Molecular Devices, Sunnyvale, Calif.) after two hours incubation at room temperature, and also after overnight incubation (approximately 18 hours). Since the absorbance of several wells was saturated, the overnight samples were diluted 1:10 with 50 mmol TES and the absorbance of the diluted samples was measured.

SLGSFLKGVGTTLASVGKVVSDQFGKLLQAGQ (Myristoyl-SLGSFLKGVGTTLASVGKVVSDQFGKLLQAGQ; also: phosphorylated) [phosphorylated dermatoxin, fully phosphorylated dermatoxin, unpurified crude preparation]
Absorbance at 538 nm (cytolytic peptide activity) (2 hrs, lipid conc. 0, dermatoxin mass 3.3 × 10^−5 mg, with phosphatase): 0.122 absorbance units | Absorbance at 538 nm (cytolytic peptide activity) (2 hrs, lipid conc. 0, dermatoxin mass 3.3 × 10^−5 mg, without phosphatase): 0.121 absorbance units | Absorbance at 538 nm (cytolytic peptide activity) (2 hrs, lipid conc. 0, dermatoxin mass 3.3 × 10^−6 mg, with phosphatase): 0.120 absorbance units | Absorbance at 538 nm (cytolytic peptide activity) (2 hrs, lipid conc. 0, dermatoxin mass 3.3 × 10^−6 mg, without phosphatase): 0.115 absorbance units | Absorbance at 538 nm (cytolytic peptide activity) (2 hrs, lipid conc. 0, dermatoxin mass 3.3 × 10^−7 mg, with phosphatase): 0.118 absorbance units | Absorbance at 538 nm (cytolytic peptide activity) (2 hrs, lipid conc. 0, dermatoxin mass 3.3 × 10^−7 mg, without phosphatase): 0.116 absorbance units | Absorbance at 538 nm (cytolytic peptide activity) (2 hrs, lipid conc. 0, dermatoxin mass 3.3 × 10^−8 mg, with phosphatase): 0.119 absorbance units | Absorbance at 538 nm (cytolytic peptide activity) (2 hrs, lipid conc. 0, dermatoxin mass 3.3 × 10^−8 mg, without phosphatase): 0.114 absorbance units | Absorbance at 538 nm (cytolytic peptide activity) (2 hrs, lipid conc. 0, dermatoxin mass 3.3 × 10^−9 mg, with phosphatase): 0.118 absorbance units | Absorbance at 538 nm (cytolytic peptide activity) (2 hrs, lipid conc. 0, dermatoxin mass 3.3 × 10^−9 mg, without phosphatase): 0.113 absorbance units | Absorbance at 538 nm (cytolytic peptide activity) (2 hrs, lipid conc. 0.004, dermatoxin mass 3.3 × 10^−5 mg, with phosphatase): 0.204 absorbance units | Absorbance at 538 nm (cytolytic peptide activity) (2 hrs, lipid conc. 0.004, dermatoxin mass 3.3 × 10^−5 mg, without phosphatase): 0.200 absorbance units | Absorbance at 538 nm (cytolytic peptide activity) (2 hrs, lipid conc. 0.004, dermatoxin mass 3.3 × 10^−6 mg, with phosphatase): 0.197 absorbance units | Absorbance at 538 nm (cytolytic peptide activity) (2 hrs, lipid conc. 0.004, dermatoxin mass 3.3 × 10^−6 mg, without phosphatase): 0.161 absorbance units | Absorbance at 538 nm (cytolytic peptide activity) (2 hrs, lipid conc. 0.004, dermatoxin mass 3.3 × 10^−7 mg, with phosphatase): 0.130 absorbance units | Absorbance at 538 nm (cytolytic peptide activity) (2 hrs, lipid conc. 0.004, dermatoxin mass 3.3 × 10^−7 mg, without phosphatase): 0.119 absorbance units | Absorbance at 538 nm (cytolytic peptide activity) (2 hrs, lipid conc. 0.004, dermatoxin mass 3.3 × 10^−8 mg, with phosphatase): 0.126 absorbance units | Absorbance at 538 nm (cytolytic peptide activity) (2 hrs, lipid conc. 0.004, dermatoxin mass 3.3 × 10^−8 mg, without phosphatase): 0.111 absorbance units | Absorbance at 538 nm (cytolytic peptide activity) (2 hrs, lipid conc. 0.004, dermatoxin mass 3.3 × 10^−9 mg, with phosphatase): 0.126 absorbance units | Absorbance at 538 nm (cytolytic peptide activity) (2 hrs, lipid conc. 0.004, dermatoxin mass 3.3 × 10^−9 mg, without phosphatase): 0.115 absorbance units | Absorbance at 538 nm (cytolytic peptide activity) (2 hrs, lipid conc. 0.02, dermatoxin mass 3.3 × 10^−5 mg, with phosphatase): 0.546 absorbance units | Absorbance at 538 nm (cytolytic peptide activity) (2 hrs, lipid conc. 0.02, dermatoxin mass 3.3 × 10^−5 mg, without phosphatase): 0.633 absorbance units | Absorbance at 538 nm (cytolytic peptide activity) (2 hrs, lipid conc. 0.02, dermatoxin mass 3.3 × 10^−6 mg, with phosphatase): 0.480 absorbance units | Absorbance at 538 nm (cytolytic peptide activity) (2 hrs, lipid conc. 0.02, dermatoxin mass 3.3 × 10^−6 mg, without phosphatase): 0.263 absorbance units | Absorbance at 538 nm (cytolytic peptide activity) (2 hrs, lipid conc. 0.02, dermatoxin mass 3.3 × 10^−7 mg, with phosphatase): 0.140 absorbance units | Absorbance at 538 nm (cytolytic peptide activity) (2 hrs, lipid conc. 0.02, dermatoxin mass 3.3 × 10^−7 mg, without phosphatase): 0.141 absorbance units | Absorbance at 538 nm (cytolytic peptide activity) (2 hrs, lipid conc. 0.02, dermatoxin mass 3.3 × 10^−8 mg, with phosphatase): 0.132 absorbance units | Absorbance at 538 nm (cytolytic peptide activity) (2 hrs, lipid conc. 0.02, dermatoxin mass 3.3 × 10^−8 mg, without phosphatase): 0.111 absorbance units | Absorbance at 538 nm (cytolytic peptide activity) (2 hrs, lipid conc. 0.02, dermatoxin mass 3.3 × 10^−9 mg, with phosphatase): 0.124 absorbance units | Absorbance at 538 nm (cytolytic peptide activity) (2 hrs, lipid conc. 0.02, dermatoxin mass 3.3 × 10^−9 mg, without phosphatase): 0.114 absorbance units | Absorbance at 538 nm (cytolytic peptide activity) (2 hrs, lipid conc. 0.1, dermatoxin mass 3.3 × 10^−5 mg, with phosphatase): 2.034 absorbance units | Absorbance at 538 nm (cytolytic peptide activity) (2 hrs, lipid conc. 0.1, dermatoxin mass 3.3 × 10^−5 mg, without phosphatase): 1.521 absorbance units | Absorbance at 538 nm (cytolytic peptide activity) (2 hrs, lipid conc. 0.1, dermatoxin mass 3.3 × 10^−6 mg, with phosphatase): 1.473 absorbance units | Absorbance at 538 nm (cytolytic peptide activity) (2 hrs, lipid conc. 0.1, dermatoxin mass 3.3 × 10^−6 mg, without phosphatase): 0.759 absorbance units | Absorbance at 538 nm (cytolytic peptide activity) (2 hrs, lipid conc. 0.1, dermatoxin mass 3.3 × 10^−7 mg, with phosphatase): 0.173 absorbance units | Absorbance at 538 nm (cytolytic peptide activity) (2 hrs, lipid conc. 0.1, dermatoxin mass 3.3 × 10^−7 mg, without phosphatase): 0.267 absorbance units | Absorbance at 538 nm (cytolytic peptide activity) (2 hrs, lipid conc. 0.1, dermatoxin mass 3.3 × 10^−8 mg, with phosphatase): 0.136 absorbance units | Absorbance at 538 nm (cytolytic peptide activity) (2 hrs, lipid conc. 0.1, dermatoxin mass 3.3 × 10^−8 mg, without phosphatase): 0.132 absorbance units | Absorbance at 538 nm (cytolytic peptide activity) (2 hrs, lipid conc. 0.1, dermatoxin mass 3.3 × 10^−9 mg, with phosphatase): 0.134 absorbance units | Absorbance at 538 nm (cytolytic peptide activity) (2 hrs, lipid conc. 0.1, dermatoxin mass 3.3 × 10^−9 mg, without phosphatase): 0.121 absorbance units | Absorbance at 538 nm (cytolytic peptide activity) (18 hrs (d), 1:10-diluted sample, lipid conc. 0, dermatoxin mass 3.3 × 10^−5 mg, with phosphatase): 0.053 absorbance units | Absorbance at 538 nm (cytolytic peptide activity) (18 hrs (d), 1:10-diluted sample, lipid conc. 0, dermatoxin mass 3.3 × 10^−5 mg, without phosphatase): 0.054 absorbance units | Absorbance at 538 nm (cytolytic peptide activity) (18 hrs (d), 1:10-diluted sample, lipid conc. 0, dermatoxin mass 3.3 × 10^−6 mg, with phosphatase): 0.053 absorbance units | Absorbance at 538 nm (cytolytic peptide activity) (18 hrs (d), 1:10-diluted sample, lipid conc. 0, dermatoxin mass 3.3 × 10^−6 mg, without phosphatase): 0.052 absorbance units | Absorbance at 538 nm (cytolytic peptide activity) (18 hrs (d), 1:10-diluted sample, lipid conc. 0, dermatoxin mass 3.3 × 10^−7 mg, with phosphatase): 0.052 absorbance units | Absorbance at 538 nm (cytolytic peptide activity) (18 hrs (d), 1:10-diluted sample, lipid conc. 0, dermatoxin mass 3.3 × 10^−7 mg, without phosphatase): 0.054 absorbance units | Absorbance at 538 nm (cytolytic peptide activity) (18 hrs (d), 1:10-diluted sample, lipid conc. 0, dermatoxin mass 3.3 × 10^−8 mg, with phosphatase): 0.054 absorbance units | Absorbance at 538 nm (cytolytic peptide activity) (18 hrs (d), 1:10-diluted sample, lipid conc. 0, dermatoxin mass 3.3 × 10^−8 mg, without phosphatase): 0.053 absorbance units | Absorbance at 538 nm (cytolytic peptide activity) (18 hrs (d), 1:10-diluted sample, lipid conc. 0, dermatoxin mass 3.3 × 10^−9 mg, with phosphatase): 0.053 absorbance units | Absorbance at 538 nm (cytolytic peptide activity) (18 hrs (d), 1:10-diluted sample, lipid conc. 0, dermatoxin mass 3.3 × 10^−9 mg, without phosphatase): 0.053 absorbance units | Absorbance at 538 nm (cytolytic peptide activity) (18 hrs (d), 1:10-diluted sample, lipid conc. 0.004, dermatoxin mass 3.3 × 10^−5 mg, with phosphatase): 0.092 absorbance units | Absorbance at 538 nm (cytolytic peptide activity) (18 hrs (d), 1:10-diluted sample, lipid conc. 0.004, dermatoxin mass 3.3 × 10^−5 mg, without phosphatase): 0.096 absorbance units | Absorbance at 538 nm (cytolytic peptide activity) (18 hrs (d), 1:10-diluted sample, lipid conc. 0.004, dermatoxin mass 3.3 × 10^−6 mg, with phosphatase): 0.090 absorbance units | Absorbance at 538 nm (cytolytic peptide activity) (18 hrs (d), 1:10-diluted sample, lipid conc. 0.004, dermatoxin mass 3.3 × 10^−6 mg, without phosphatase): 0.081 absorbance units | Absorbance at 538 nm (cytolytic peptide activity) (18 hrs (d), 1:10-diluted sample, lipid conc. 0.004, dermatoxin mass 3.3 × 10^−7 mg, with phosphatase): 0.066 absorbance units | Absorbance at 538 nm (cytolytic peptide activity) (18 hrs (d), 1:10-diluted sample, lipid conc. 0.004, dermatoxin mass 3.3 × 10^−7 mg, without phosphatase): 0.056 absorbance units | Absorbance at 538 nm (cytolytic peptide activity) (18 hrs (d), 1:10-diluted sample, lipid conc. 0.004, dermatoxin mass 3.3 × 10^−8 mg, with phosphatase): 0.063 absorbance units | Absorbance at 538 nm (cytolytic peptide activity) (18 hrs (d), 1:10-diluted sample, lipid conc. 0.004, dermatoxin mass 3.3 × 10^−8 mg, without phosphatase): 0.054 absorbance units | Absorbance at 538 nm (cytolytic peptide activity) (18 hrs (d), 1:10-diluted sample, lipid conc. 0.004, dermatoxin mass 3.3 × 10^−9 mg, with phosphatase): 0.062 absorbance units
